Laboratory results published in the NIST ThermoML archive (doi:10.1021/acs.jced.7b00904).
± gives the expanded uncertainty stated by the source.

Legend:
[1] = refractive index (Na D-line) (dimensionless); wn = mass fraction of the nth substance listed; conditions: 101.3 kPa, Liquid, Standard Abbe refractometry
[2] = wn = mass fraction of the nth substance listed; conditions: 295 K, w2 = 0

**Q.** Which refractive index ([1]; 296 K, w1 = 0.332) does the source give for `[I-].[Na+]` [sodium iodide] + O here?
**A.** Its refractive index is 1.3939 ± 0.00059.

**Q.** And the refractive index ([1]; 296 K, w1 = 0.359)?
**A.** Its refractive index is 1.40055 ± 0.00059.

**Q.** What about the refractive index ([1]; 296 K, w1 = 0.374) of the same molecule?
**A.** The refractive index was 1.4045 ± 0.00059.

**Q.** And the refractive index ([1]; 296 K, w1 = 0.39)?
**A.** Its refractive index is 1.40905 ± 0.00059.

**Q.** And the refractive index ([1]; 296 K, w1 = 0.408)?
**A.** Its refractive index is 1.41365 ± 0.0007.

**Q.** And the refractive index ([1]; 296 K, w1 = 0.427)?
**A.** Its refractive index is 1.4193 ± 0.00061.

**Q.** What about the refractive index ([1]; 296 K, w1 = 0.449) of the same molecule?
**A.** Its refractive index is 1.426 ± 0.0006.

**Q.** What about the refractive index ([1]; 296 K, w1 = 0.46) of the same molecule?
**A.** The refractive index was 1.4295 ± 0.00059.

**Q.** And the refractive index ([1]; 296 K, w1 = 0.472)?
**A.** The refractive index was 1.43335 ± 0.00059.

**Q.** What about the refractive index ([1]; 296 K, w1 = 0.485) of the same molecule?
**A.** The refractive index was 1.4376 ± 0.00058.

**Q.** What about the refractive index ([1]; 296 K, w1 = 0.498) of the same molecule?
**A.** Its refractive index is 1.4421 ± 0.00058.

**Q.** What about the refractive index ([1]; 296 K, w1 = 0.513) of the same molecule?
**A.** Its refractive index is 1.44705 ± 0.00058.

**Q.** And the refractive index ([1]; 296 K, w1 = 0.528)?
**A.** The refractive index was 1.4523 ± 0.00059.

**Q.** What about the refractive index ([1]; 296 K, w1 = 0.544) of the same molecule?
**A.** Its refractive index is 1.4581 ± 0.00059.

**Q.** What about the refractive index ([1]; 296 K, w1 = 0.56) of the same molecule?
**A.** Its refractive index is 1.4648 ± 0.00059.

**Q.** And the refractive index ([1]; 296 K, w1 = 0.579)?
**A.** Its refractive index is 1.472 ± 0.00058.

**Q.** What about the refractive index ([1]; 296 K, w1 = 0.598) of the same molecule?
**A.** Its refractive index is 1.4797 ± 0.00058.

**Q.** And the refractive index ([1]; 298 K, w1 = 0.498)?
**A.** Its refractive index is 1.4428 ± 0.00058.

**Q.** What about the refractive index ([1]; 298 K, w1 = 0.512) of the same molecule?
**A.** The refractive index was 1.44745 ± 0.00059.

**Q.** What about the refractive index ([1]; 298 K, w1 = 0.518) of the same molecule?
**A.** The refractive index was 1.44985 ± 0.00059.

**Q.** And the refractive index ([1]; 298 K, w1 = 0.524)?
**A.** Its refractive index is 1.45195 ± 0.00059.

**Q.** What about the refractive index ([1]; 298 K, w1 = 0.53) of the same molecule?
**A.** Its refractive index is 1.45405 ± 0.00059.

**Q.** And the refractive index ([1]; 298 K, w1 = 0.536)?
**A.** The refractive index was 1.45645 ± 0.00059.

**Q.** What about the refractive index ([1]; 298 K, w1 = 0.543) of the same molecule?
**A.** Its refractive index is 1.45915 ± 0.0006.

**Q.** What about the refractive index ([1]; 298 K, w1 = 0.549) of the same molecule?
**A.** Its refractive index is 1.4615 ± 0.0006.

**Q.** And the refractive index ([1]; 298 K, w1 = 0.556)?
**A.** The refractive index was 1.46395 ± 0.00058.

**Q.** And the refractive index ([1]; 298 K, w1 = 0.563)?
**A.** Its refractive index is 1.4666 ± 0.00058.

**Q.** What about the refractive index ([1]; 298 K, w1 = 0.57) of the same molecule?
**A.** The refractive index was 1.4694 ± 0.00059.

**Q.** What about the refractive index ([1]; 298 K, w1 = 0.577) of the same molecule?
**A.** The refractive index was 1.4721 ± 0.00058.

**Q.** And the refractive index ([1]; 298 K, w1 = 0.585)?
**A.** The refractive index was 1.4744 ± 0.00058.

**Q.** With `O` [water] + N#C[S-].[K+] as the molecule, how does the surface tension liquid-gas ([2]; Wilhelmi plate) read?
**A.** The surface tension liquid-gas was 72.28 ± 0.4 mN/m.

**Q.** And the mass density ([2]; 101.3 kPa, Liquid, Buoyancy - hydrostatic balance)?
**A.** The mass density was 999 ± 6 kg/m3.

**Q.** What about the viscosity ([2]; 101.3 kPa, Liquid, Concentric cylinders viscometry) of the same molecule?
**A.** Its viscosity is 0.975 ± 0.07 mPa·s.

**Q.** What about the refractive index ([1]; 293 K, w2 = 0) of the same molecule?
**A.** The refractive index was 1.3333 ± 0.00058.

**Q.** What about the refractive index ([1]; 298 K, w2 = 0) of the same molecule?
**A.** Its refractive index is 1.3326 ± 0.00058.

**Q.** And the refractive index ([1]; 303 K, w2 = 0)?
**A.** Its refractive index is 1.3321 ± 0.00058.

**Q.** And the refractive index ([1]; 308 K, w2 = 0)?
**A.** Its refractive index is 1.33165 ± 0.00058.

**Q.** And the refractive index ([1]; 313 K, w2 = 0)?
**A.** Its refractive index is 1.33085 ± 0.00058.
